Patent publication US7747390B2, “Digital cell” (National Institute of Advanced Industrial Science and …, priority 2003, dated 2010)

Columns and labels:
[1] = system: cells resistant or sensitive to the anticancer agent; assay: Time-lapse profiles of cells exposed to anticancer agent; assay type: cell-based; conditions: cisplatin 1 μM, 5 μM, 10 μM in medium
Description: In this example, cisplatin was used as an exemplary anticancer agent and was mixed into the medium of exposed cells. The concentration of the anticancer agent was selected as appropriate, such as 1 μM, 5 μM, 10 μM, and the like, to observe the reaction of the cells. Cisplatin was applied to cells resistant or sensitive to the anticancer agent. Time-lapse observation was conducted to produce profiles as in the above-described examples.

[2] = system: HEK293 cells; assay: Solid phase transfection with actin-like acting substances (FIG. 1); assay type: cell-based, human; conditions: pEGFP-N1, Effectene reagent, gelatin as control
Description: (§1) The final concentration of DNA was adjusted to 1 μg/μL. An actin-like acting substance was preserved as a stock having a concentration of 10 μg/μL in ddH2O. All dilutions were made using PBS, ddH2O, or Dulbecco's MEM. A series of dilutions, for example, 0.2 μg/μL, 0.27 μg/μL, 0.4 μg/μL, 0.53 μg/μL, 0.6 μg/μL, 0.8 μg/μL, 1.0 μg/μL, 1.07 μg/μL, 1.33 μg/μL, and the like, were formulated.
(§2) Transfection reagents and DNA were mixed to form a DNA-transfection reagent complex. Formation of the complex requires a certain period of time. Therefore, the mixture was spotted onto a solid phase support (e.g., a poly-L-lysine slide) using an arrayer. In Example 2, as a solid phase support, an APS slide, a MAS slide, and an uncoated slide were used as well as a poly-L-lysine slide. These slides are available from Matsunami Glass (Kishiwada, Japan) or the like.
(§3) 300 μL of DNA concentrated buffer (EC buffer)+16 μL of an enhancer were mixed in an Eppendorf tube. The mixture was mixed with a Vortex, followed by incubation for 5 minutes. 50 μL of a transfection reagent (Effectene, etc.) was added to the mixture, followed by mixing by pipetting. To apply a transfection reagent, an annular wax barrier was formed around the spots on the slide. 366 μL of the mixture was added to the spot region surrounded by the wax, followed by incubation at room temperature for 10 to 20 minutes. Thereby, the fixation to the support was manually achieved.
(§4) The growing cells were distributed to a concentration of 10^7 cells/25 mL. The cells were plated on the slide in a 100×100×15 mm squared Petri dish or a 100 mm (radius)×15 mm circular dish. Transfection was conducted for about 40 hours. This period of time corresponded to about 2 cell cycles. The slide was treated for immunofluorescence.
(§5) To quantify transfection efficiency, the present inventors use a DNA microarray scanner (GeneTAC UC4×4, Genomic Solutions Inc., MI). Total fluorescence intensity (arbitrary unit) was measured, and thereafter, fluorescence intensity per unit surface area was calculated.

[3] = system: cells on transfection array; assay: Transfection efficiency when fibronectin fragments were used (FIGS. 2-4); assay type: cell-based; conditions: fibronectin fragments or RGD peptide as actin-like acting substance
Description: as §1, §2
300 μL of DNA concentrated buffer (EC buffer)+16 μL of an enhancer were mixed in an Eppendorf tube. The mixture was mixed with a Vortex, followed by incubation for 5 minutes. 50 μL of a transfection reagent (Effectene, etc.) was added to the mixture, followed by mixing by pipetting. […]
as §5

[4] = system: cells on transfection array; assay: Transfection at various fibronectin concentrations on coated and uncoated slides (FIG. 7); assay type: cell-based
Description: as §1, §2, §3, §4, §5

[5] = system: human mesenchymal stem cells (hMSC); assay: Cell adhesion profile and cross-sectional confocal observation in presence or absence of fibronectin (FIGS. 8-10); assay type: cell-based

N.N.[Cl][Pt][Cl] [cisplatin]
time-lapse profiles [1]: varied depending on the difference in cisplatin concentration and resistance/sensitivity

RGD peptide (tripeptide) [reference compound]
transfection (transfection efficiency) [2]: substantially no effect
transfection activity [3]: increased transfection efficiency was not exhibited

fibronectin
fibronectin concentration at which the effect was further increased ([4]; APS coating): > 1.07 µg/µL
fibronectin concentration at which transfection efficiency reached a plateau ([4]; PLL coating): more than 0.53 μg/μL
fibronectin concentration at which transfection efficiency reached a plateau ([4]; absence of coating): more than 0.53 μg/μL
transfection efficiency versus fibronectin concentration ([4]; fibronectin 0, 0.27, 0.53, 0.8, 1.07, 1.33 μg/μL, FIG. 7): increased with an increase in fibronectin concentration
transfection (transfection efficiency) [2]: transfection took place to a significant level
surface area of the nucleus ([5]; in the presence of fibronectin, FIG. 10): significantly increased
extension of adherent cells ([5]; initial 3 hours of culture in the presence of fibronectin, FIG. 9): full extension of cells

gelatin [reference compound]
transfection (transfection efficiency) [2]: not very successful

laminin
transfection (transfection efficiency) [2]: transfection took place to a significant level
